Data published in the supplement of paper PMC11061612.

Experiments:
Capivasertib = compound: C1CN(CCC1(C(=O)N[C@@H](CCO)C2=CC=C(C=C2)Cl)N)C3=NC=NC4=C3C=CN4 [Capivasertib]; conditions: max 10 µM
Procedure, shortened: (§1)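 Cancer cell lines were dosed for 72 hours (final DMSO typically 0.2%) after 24 hours at 37°C and 5% CO2 in 1536-well plates containing 7.5 μl DMEM/F12 or RPMI with 10% FBS. Viability came from CellTiter-Glo 2.0 luminescence, scaled between blank-well and DMSO-well means, and dose responses were fitted to a two-parameter logistic curve with a non-linear mixed effects model. The single-agent IC50 was obtained from this fit.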

AZD1775 = compound: C=CCn1c(=O)c2cnc(Nc3ccc(N4CCN(C)CC4)cc3)nc2n1-c1cccc(C(C)(C)O)n1 [AZD1775]; conditions: max 3 µM
Procedure, shortened: as §1

Trametinib = compound: CC(=O)Nc1cccc(-n2c(=O)n(C3CC3)c(=O)c3c(Nc4ccc(I)cc4F)n(C)c(=O)c(C)c32)c1 [Trametinib]; conditions: max 1 µM
Procedure, shortened: as §1

Palbociclib = compound: CC(=O)c1c(C)c2cnc(Nc3ccc(N4CCNCC4)cn3)nc2n(C2CCCC2)c1=O [Palbociclib]; conditions: max 10 µM
Procedure, shortened: as §1

AZD1390 = compound: CC(C)n1c(=O)n(C)c2cnc3cc(F)c(-c4ccc(OCCCN5CCCCC5)nc4)cc3c21 [AZD1390]; conditions: max 0.3 µM
Procedure, shortened: as §1

Venetoclax = compound: CC1(C)CCC(CN2CCN(c3ccc(C(=O)NS(=O)(=O)c4ccc(NCC5CCOCC5)c([N+](=O)[O-])c4)c(Oc4cnc5[nH]ccc5c4)c3)CC2)=C(c2ccc(Cl)cc2)C1 [Venetoclax]; conditions: max 1 µM
Procedure, shortened: as §1

Dasatinib = compound: CC1=C(C(=CC=C1)Cl)NC(=O)C2=CN=C(S2)NC3=CC(=NC(=N3)C)N4CCN(CC4)CCO [Dasatinib]; conditions: max 2 µM
Procedure, shortened: as §1

SG3199 = compound: CC1=CN2[C@@H](C1)C=NC3=CC(=C(C=C3C2=O)OC)OCCCCCOC4=C(C=C5C(=C4)N=C[C@@H]6CC(=CN6C5=O)C)OC [SG3199]; conditions: max 0.001 µM
Procedure, shortened: as §1

AZD2811 = compound: CCN(CCO)CCCOc1ccc2c(Nc3cc(CC(=O)Nc4cccc(F)c4)[nH]n3)ncnc2c1 [AZD2811]; conditions: max 1 µM
Procedure, shortened: as §1

SN-38 = compound: CCc1c2c(nc3ccc(O)cc13)-c1cc3c(c(=O)n1C2)COC(=O)[C@]3(O)CC [SN-38]; conditions: max 0.3 µM
Procedure, shortened: as §1

AZD0156 = compound: CN(C)CCCOc1ccc(-c2ccc3ncc4c(c3c2)n(C2CCOCC2)c(=O)n4C)cn1 [AZD0156]; conditions: max 3 µM
Procedure, shortened: as §1

AZD4320 = compound: CN(CC[C@H](CSC1=CC=CC=C1)NC2=C(C=C(C=C2)S(=O)(=O)NC(=O)C3=CC=C(C=C3)N4CCC(CC4)[C@H](C5=CC=CC=C5C6=CC=C(C=C6)Cl)O)S(=O)(=O)C(F)(F)F)CCO [AZD4320]; conditions: max 1 µM
Procedure, shortened: as §1

Alisertib = compound: COc1cc(Nc2ncc3c(n2)-c2ccc(Cl)cc2C(c2c(F)cccc2OC)=NC3)ccc1C(=O)O [Alisertib]; conditions: max 10 µM
Procedure, shortened: as §1

Gefitinib = compound: COc1cc2ncnc(Nc3ccc(F)c(Cl)c3)c2cc1OCCCN1CCOCC1 [Gefitinib]; conditions: max 10 µM
Procedure, shortened: as §1

Prexasertib = compound: COc1cccc(OCCCN)c1-c1cc(Nc2cnc(C#N)cn2)n[nH]1 [Prexasertib]; conditions: max 1 µM
Procedure, shortened: as §1

Doxorubicin = compound: COc1cccc2c1C(=O)c1c(O)c3c(c(O)c1C2=O)C[C@@](O)(C(=O)CO)C[C@@H]3O[C@H]1C[C@H](N)[C@H](O)[C@H](C)O1 [Doxorubicin]; conditions: max 1 µM
Procedure, shortened: as §1

AZD5153 = compound: COc1nnc2ccc(N3CCC(c4ccc(OCCN5CCN(C)C(=O)[C@H]5C)cc4)CC3)nn12 [AZD5153]; conditions: max 1 µM
Procedure, shortened: as §1

Lapatinib = compound: CS(=O)(=O)CCNCc1ccc(-c2ccc3ncnc(Nc4ccc(OCc5cccc(F)c5)c(Cl)c4)c3c2)o1 [Lapatinib]; conditions: max 10 µM
Procedure, shortened: as §1

AZD8186 = compound: C[C@@H](Nc1cc(F)cc(F)c1)c1cc(C(=O)N(C)C)cc2c(=O)cc(N3CCOCC3)oc12 [AZD8186]; conditions: max 3 µM
Procedure, shortened: as §1

Crizotinib = compound: C[C@@H](Oc1cc(-c2cnn(C3CCNCC3)c2)cnc1N)c1c(Cl)ccc(F)c1Cl [Crizotinib]; conditions: max 10 µM
Procedure, shortened: as §1

Savolitinib = compound: C[C@@H](c1ccc2nccn2c1)n1nnc2ncc(-c3cnn(C)c3)nc21 [Savolitinib]; conditions: max 1 µM
Procedure, shortened: as §1

AZD6738 = compound: C[C@@H]1COCCN1C2=NC(=NC(=C2)C3(CC3)[S@](=N)(=O)C)C4=C5C=CNC5=NC=C4 [AZD6738]; conditions: max 10 µM
Procedure, shortened: as §1

AZD5991 = compound: Cc1c2c(nn1C)CSCc1cc(n(C)n1)CSc1cc(c3ccccc3c1)OCCCc1c(C(=O)O)n(C)c3c-2c(Cl)ccc13 [AZD5991]; conditions: max 1 µM
Procedure, shortened: as §1

AZD7648 = compound: Cc1cc2ncnn2cc1Nc1ncc2c(n1)n(C1CCOCC1)c(=O)n2C [AZD7648]; conditions: max 10 µM
Procedure, shortened: as §1

Taselisib = compound: Cc1nc(-c2cn3c(n2)-c2ccc(-c4cnn(C(C)(C)C(N)=O)c4)cc2OCC3)n(C(C)C)n1 [Taselisib]; conditions: max 10 µM
Procedure, shortened: as §1

Selumetinib = compound: Cn1cnc2c(F)c(Nc3ccc(Br)cc3Cl)c(C(=O)NOCCO)cc21 [Selumetinib]; conditions: max 10 µM
Procedure, shortened: as §1

Olaparib = compound: O=C(c1cc(Cc2n[nH]c(=O)c3ccccc23)ccc1F)N1CCN(C(=O)C2CC2)CC1 [Olaparib]; conditions: max 10 µM
Procedure, shortened: as §1

Cell Line	IC50, cell viability 72 h (Capivasertib) [nM]	IC50, cell viability 72 h (AZD1775) [nM]	IC50, cell viability 72 h (Trametinib) [nM]	IC50, cell viability 72 h (Palbociclib) [nM]	IC50, cell viability 72 h (AZD1390) [nM]	IC50, cell viability 72 h (Venetoclax) [nM]	IC50, cell viability 72 h (Dasatinib) [nM]	IC50, cell viability 72 h (SG3199) [nM]	IC50, cell viability 72 h (AZD2811) [nM]	IC50, cell viability 72 h (SN-38) [nM]	IC50, cell viability 72 h (AZD0156) [nM]	IC50, cell viability 72 h (AZD4320) [nM]	IC50, cell viability 72 h (Alisertib) [nM]	IC50, cell viability 72 h (Gefitinib) [nM]	IC50, cell viability 72 h (Prexasertib) [nM]	IC50, cell viability 72 h (Doxorubicin) [nM]	IC50, cell viability 72 h (AZD5153) [nM]	IC50, cell viability 72 h (Lapatinib) [nM]	IC50, cell viability 72 h (AZD8186) [nM]	IC50, cell viability 72 h (Crizotinib) [nM]	IC50, cell viability 72 h (Savolitinib) [nM]	IC50, cell viability 72 h (AZD6738) [nM]	IC50, cell viability 72 h (AZD5991) [nM]	IC50, cell viability 72 h (AZD7648) [nM]	IC50, cell viability 72 h (Taselisib) [nM]	IC50, cell viability 72 h (Selumetinib) [nM]	IC50, cell viability 72 h (Olaparib) [nM]
42-MG-BA (Glioblastoma)	2250	1050	> 1000	> 10000	> 300	> 1000	54.6	> 1	> 1000	7.39	> 3000	> 1000	8550	> 10000	25.3	163	401	> 10000	2530	> 10000	> 1000	8570	299	> 10000	627	> 10000	> 10000
AGS (Gastric Carcinoma)	> 10000	455	11.9	> 10000	> 300	> 1000	> 2000	> 1	> 1000	22.6	> 3000	> 1000	> 10000	> 10000	839	151	251	> 10000	> 3000	> 10000	> 1000	4930	> 1000	> 10000	577	767	> 10000
COLO-205 (Colorectal Carcinoma)	> 10000	> 3000	6.16	7970	> 300	> 1000	> 2000	> 1	116	> 300	> 3000	> 1000	743	> 10000	782	518	499	> 10000	> 3000	4110	> 1000	> 10000	> 1000	> 10000	4250	302	> 10000
DEL (T-Cell Non-Hodgkin's Lymphoma)	> 10000	178	> 1000	3530	> 300	> 1000	> 2000	> 1	151	2.3	2810	> 1000	20.3	> 10000	5.4	91.3	27.5	8540	> 3000	120	> 1000	707	28.7	> 10000	> 10000	> 10000	8260
Daoy (Other Solid Carcinomas)	> 10000	398	> 1000	> 10000	> 300	> 1000	> 2000	> 1	> 1000	4.44	> 3000	> 1000	818	> 10000	46.7	141	489	> 10000	> 3000	> 10000	> 1000	3180	> 1000	> 10000	4730	> 10000	> 10000
EC-GI-10 (Esophageal Squamous Cell Carcinoma)	> 10000	516	283	> 10000	> 300	> 1000	> 2000	> 1	> 1000	17.4	> 3000	> 1000	9240	3700	171	> 1000	> 1000	770	> 3000	> 10000	> 1000	8220	> 1000	> 10000	496	> 10000	> 10000
ES4 (Ewing's Sarcoma)	> 10000	> 3000	> 1000	> 10000	> 300	> 1000	> 2000	> 1	> 1000	8.83	> 3000	> 1000	> 10000	> 10000	24.3	431	246	> 10000	> 3000	> 10000	> 1000	2030	> 1000	> 10000	3240	> 10000	> 10000
